Values after ≈ are worked out from the molar mass of the structure shown.
Columns and labels:
Hep G2 cell line = test: solid tumor cell growth inhibition, MTT; type: cell-based, human; conditions: Homo sapiens; for inhibition at 16 µg/mL: HepG2, 72 h, Hep G2, 16 μg/mL compound, 72 h, read-out: IR (cell proliferation inhibition rate); for IC50: HepG2, Hep G2, 72 h
Summary of the method: (§1)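 Cells grown in DMEM high glucose supplemented with 10% fetal bovine serum were plated at 4000 per well. After 24 h at 37° C in 5% CO2, varying compound concentrations were added for a further 72 h before MTT determination of viable cells.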

RPMI8226 cell line = test: multiple myeloma cell growth inhibition, MTT; type: cell-based; conditions: Homo sapiens, RPMI-8226; for inhibition at 16 µg/mL: RPMI8226, 16 μg/mL compound, 72 h, read-out: IR (cell proliferation inhibition rate); for IC50: RPMI8226, 72 h
Summary of the method: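 Viability was measured by MTT after a 72 h compound exposure (37° C, 5% CO2) of RPMI8226 myeloma cells seeded at 6000 per well in 1640 medium with 10% fetal bovine serum. Growth inhibition was expressed relative to untreated cells, taken as 0%.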

Kasumi-1 cell line = test: leukemia cell growth inhibition, MTT; type: cell-based; conditions: Homo sapiens; for inhibition at 16 µg/mL: Kasumi-1, 16 μg/mL compound, 72 h, read-out: IR (cell proliferation inhibition rate); for IC50: Kasumi-1, 72 h
Summary of the method: (§2)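 Cells seeded at 6000/well, RPMI 1640 + 10% FBS; compound dilution series added; 72 h, 37° C, 5% CO2. Readout MTT; untreated control = 0% inhibition.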

Jurkat cell line = test: leukemia cell growth inhibition, MTT; type: cell-based; conditions: Homo sapiens, 72 h; for inhibition at 16 µg/mL: 16 μg/mL compound, read-out: IR (cell proliferation inhibition rate)
Summary of the method: as §2

K562/adr cell line = test: leukemia cell growth inhibition, MTT; type: cell-based; conditions: Homo sapiens, 72 h; for IC50: K562/Adr; for inhibition at 16 µg/mL: K562/adr, 16 μg/mL compound, read-out: IR (cell proliferation inhibition rate)
Summary of the method: as §2

H9 cell line = test: leukemia cell growth inhibition, MTT; type: cell-based; conditions: Homo sapiens; for IC50: H9, 72 h; for inhibition at 16 µg/mL: H9, 16 μg/mL compound, 72 h, read-out: IR (cell proliferation inhibition rate)
Summary of the method: as §2

NB4 cell line = test: leukemia cell growth inhibition, MTT; type: cell-based; conditions: Homo sapiens, NB-4; for inhibition at 16 µg/mL: NB4, 16 μg/mL compound, 72 h, read-out: IR (cell proliferation inhibition rate); for IC50: NB4, 72 h
Summary of the method: as §2

Hep-2 cell line = test: solid tumor cell growth inhibition, MTT; type: cell-based; conditions: Homo sapiens; for IC50: HEp-2, 72 h; for inhibition at 16 µg/mL: Hep-2, 16 μg/mL compound, 72 h, read-out: IR (cell proliferation inhibition rate)
Summary of the method: as §1

PANC-1 cell line = test: solid tumor cell growth inhibition, MTT; type: cell-based; conditions: Homo sapiens; for IC50: PANC-1, 72 h; for inhibition at 16 µg/mL: PANC-1, 16 μg/mL compound, 72 h, read-out: IR (cell proliferation inhibition rate)
Summary of the method: as §1

A549 cell line = test: solid tumor cell growth inhibition, MTT; type: cell-based; conditions: Homo sapiens; for IC50: A549, 72 h; for inhibition at 16 µg/mL: A549, 16 μg/mL compound, 72 h, read-out: IR (cell proliferation inhibition rate)
Summary of the method: as §1

PC-3 cell line = test: solid tumor cell growth inhibition, MTT; type: cell-based; conditions: Homo sapiens; for IC50: PC-3, 72 h; for inhibition at 16 µg/mL: PC-3, 16 μg/mL compound, 72 h, read-out: IR (cell proliferation inhibition rate)
Summary of the method: as §1

Hela cell line = test: solid tumor cell growth inhibition, MTT; type: cell-based; conditions: Homo sapiens, 72 h; for IC50: HeLa; for inhibition at 16 µg/mL: Hela, 16 μg/mL compound, read-out: IR (cell proliferation inhibition rate)
Summary of the method: as §1

Becap37 cell line = test: solid tumor cell growth inhibition, MTT; type: cell-based; conditions: Homo sapiens; for inhibition at 16 µg/mL: Becap37, 16 μg/mL compound, 72 h, read-out: IR (cell proliferation inhibition rate); for IC50: Becap37, 72 h
Summary of the method: as §1

U87 MG cell line = test: solid tumor cell growth inhibition, MTT; type: cell-based; conditions: Homo sapiens, U-87 MG, 72 h; for inhibition at 16 µg/mL: 16 μg/mL compound, read-out: IR (cell proliferation inhibition rate)
Summary of the method: as §1

MG-63 cell line = test: solid tumor cell growth inhibition, MTT; type: cell-based; conditions: Homo sapiens; for IC50: MG-63, 72 h; for inhibition at 16 µg/mL: MG-63, 16 μg/mL compound, 72 h, read-out: IR (cell proliferation inhibition rate)
Summary of the method: as §1

RKO cell line = test: solid tumor cell growth inhibition, MTT; type: cell-based; conditions: Homo sapiens, 72 h; for inhibition at 16 µg/mL: 16 μg/mL compound, read-out: IR (cell proliferation inhibition rate)
Summary of the method: as §1

CNE cell line = test: solid tumor cell growth inhibition, MTT; type: cell-based; conditions: Homo sapiens, 72 h; for inhibition at 16 µg/mL: 16 μg/mL compound, read-out: IR (cell proliferation inhibition rate)
Summary of the method: as §1

CaES-17 cell line = test: solid tumor cell growth inhibition, MTT; type: cell-based; conditions: Homo sapiens, CaEs17; for inhibition at 16 µg/mL: CaES-17, 16 μg/mL compound, 72 h, read-out: IR (cell proliferation inhibition rate); for IC50: CaES-17, 72 h
Summary of the method: as §1

MGC 803 cell line = test: solid tumor cell growth inhibition, MTT; type: cell-based; conditions: Homo sapiens; for inhibition at 16 µg/mL: MGC 803, 16 μg/mL compound, 72 h, read-out: IR (cell proliferation inhibition rate); for IC50: MGC 803, 72 h
Summary of the method: as §1

SK-OV-3 cell line = test: solid tumor cell growth inhibition, MTT; type: cell-based; conditions: Homo sapiens; for IC50: SK-OV-3, 72 h; for inhibition at 16 µg/mL: SK-OV-3, 16 μg/mL compound, 72 h, read-out: IR (cell proliferation inhibition rate)
Summary of the method: as §1

Row | Compound | inhibition at 16 µg/mL (Hep G2 cell line) [%] | IC50 (Hep G2 cell line) [µg/mL] | inhibition at 16 µg/mL (RPMI8226 cell line) [%] | IC50 (RPMI8226 cell line) [µg/mL] | inhibition at 16 µg/mL (Kasumi-1 cell line) [%] | IC50 (Kasumi-1 cell line) [µg/mL] | inhibition at 16 µg/mL (Jurkat cell line) [%] | IC50 (Jurkat cell line) [µg/mL] | IC50 (K562/adr cell line) [µg/mL] | inhibition at 16 µg/mL (K562/adr cell line) [%] | IC50 (H9 cell line) [µg/mL] | inhibition at 16 µg/mL (H9 cell line) [%] | inhibition at 16 µg/mL (NB4 cell line) [%] | IC50 (NB4 cell line) [µg/mL] | IC50 (Hep-2 cell line) [µg/mL] | inhibition at 16 µg/mL (Hep-2 cell line) [%] | IC50 (PANC-1 cell line) [µg/mL] | inhibition at 16 µg/mL (PANC-1 cell line) [%] | IC50 (A549 cell line) [µg/mL] | inhibition at 16 µg/mL (A549 cell line) [%] | also measured
1 | CCOCCNC(=O)C1C[C@@]2(C)C(CC[C@]3(C)C2CC=C2C4CC(C)(C)CC[C@]4(C(=O)OC)CC[C@]23C)C(C)(C)C1=O (stereo partly drawn) [BS-OA-053] | 6.8 | > 16 | 29.5 | > 16 | 23.2 | > 16 | 13 | > 16 | 10.8 (≈ 18.4 µM) | 60.9 | 15.5 (≈ 26.6 µM) | 54.6 | 71.3 | 10.7 (≈ 18.3 µM) | > 16 | -10 | > 16 | -3.3 | > 16 | 2 | IC50 (PC-3 cell line): > 16 µg/mL; inhibition at 16 µg/mL (PC-3 cell line): 38.8%; IC50 (Hela cell line): > 16 µg/mL; inhibition at 16 µg/mL (Hela cell line): 27.5%; inhibition at 16 µg/mL (Becap37 cell line): -10.2%; IC50 (Becap37 cell line): > 16 µg/mL; inhibition at 16 µg/mL (U87 MG cell line): 20.1%; IC50 (U87 MG cell line): > 16 µg/mL; IC50 (MG-63 cell line): > 16 µg/mL; inhibition at 16 µg/mL (MG-63 cell line): -32.5%; inhibition at 16 µg/mL (RKO cell line): -55.6%; IC50 (RKO cell line): > 16 µg/mL; inhibition at 16 µg/mL (CNE cell line): 9.9%; IC50 (CNE cell line): > 16 µg/mL; inhibition at 16 µg/mL (CaES-17 cell line): -13.1%; IC50 (CaES-17 cell line): > 16 µg/mL; inhibition at 16 µg/mL (MGC 803 cell line): 7.8%; IC50 (MGC 803 cell line): > 16 µg/mL; IC50 (SK-OV-3 cell line): > 16 µg/mL; inhibition at 16 µg/mL (SK-OV-3 cell line): 22.7%
2 | COC(=O)[C@]12CCC(C)(C)C[C@H]1C1=CC[C@@H]3[C@@]4(C)CC(C(=O)NCCN5CCOCC5)C(=O)C(C)(C)[C@@H]4CC[C@@]3(C)[C@]1(C)CC2 (stereo partly drawn) [BS-OA-059] | 0.6 | > 16 | 96.6 | 7.18 (≈ 11.5 µM) | 48.7 | 16 (≈ 25.6 µM) | 23.8 | > 16 | 8.87 (≈ 14.2 µM) | 80.5 | 12.7 (≈ 20.4 µM) | 67.7 | 86.7 | 9.74 (≈ 15.6 µM) | > 16 | 0 | > 16 | 10.4 | > 16 | 11.8 | IC50 (PC-3 cell line): > 16 µg/mL; inhibition at 16 µg/mL (PC-3 cell line): 34.1%; IC50 (Hela cell line): 16 µg/mL (≈ 25.6 µM); inhibition at 16 µg/mL (Hela cell line): 51.8%; inhibition at 16 µg/mL (Becap37 cell line): 4.7%; IC50 (Becap37 cell line): > 16 µg/mL; inhibition at 16 µg/mL (U87 MG cell line): 30.6%; IC50 (U87 MG cell line): > 16 µg/mL; IC50 (MG-63 cell line): > 16 µg/mL; inhibition at 16 µg/mL (MG-63 cell line): 27%; inhibition at 16 µg/mL (RKO cell line): 1.8%; IC50 (RKO cell line): > 16 µg/mL; inhibition at 16 µg/mL (CNE cell line): 20.6%; IC50 (CNE cell line): > 16 µg/mL; inhibition at 16 µg/mL (CaES-17 cell line): 34%; IC50 (CaES-17 cell line): > 16 µg/mL; inhibition at 16 µg/mL (MGC 803 cell line): -7.4%; IC50 (MGC 803 cell line): > 16 µg/mL; IC50 (SK-OV-3 cell line): > 16 µg/mL; inhibition at 16 µg/mL (SK-OV-3 cell line): 35.2%
3 | COC(=O)[C@]12CCC(C)(C)CC1C1=CCC3[C@@]4(C)CC(C(=O)NCCCN5CCN(C)CC5)C(=O)C(C)(C)C4CC[C@@]3(C)[C@]1(C)CC2 (stereo partly drawn) [BS-OA-078] | 99.7 | 4.77 (≈ 7.32 µM) | 99.1 | 0.74 (≈ 1.14 µM) | 97.9 | 5.67 (≈ 8.7 µM) | 98.3 | 2.5 (≈ 3.83 µM) | 0.89 (≈ 1.37 µM) | 99.1 | 4.33 (≈ 6.64 µM) | 97.5 | 100 | 4.59 (≈ 7.04 µM) | 8.25 (≈ 12.7 µM) | 97.3 | 9.69 (≈ 14.9 µM) | 100 | 3.58 (≈ 5.49 µM) | 97.6 | IC50 (PC-3 cell line): 6.82 µg/mL (≈ 10.5 µM); inhibition at 16 µg/mL (PC-3 cell line): 98.4%; IC50 (Hela cell line): 4.54 µg/mL (≈ 6.96 µM); inhibition at 16 µg/mL (Hela cell line): 99.4%; inhibition at 16 µg/mL (Becap37 cell line): 98.1%; IC50 (Becap37 cell line): 6.23 µg/mL (≈ 9.56 µM); inhibition at 16 µg/mL (U87 MG cell line): 98.6%; IC50 (U87 MG cell line): 3 µg/mL (≈ 4.6 µM); IC50 (MG-63 cell line): 5.7 µg/mL (≈ 8.74 µM); inhibition at 16 µg/mL (MG-63 cell line): 100%; inhibition at 16 µg/mL (RKO cell line): 97.5%; IC50 (RKO cell line): 3.91 µg/mL (≈ 6 µM); inhibition at 16 µg/mL (CNE cell line): 99.7%; IC50 (CNE cell line): 5.01 µg/mL (≈ 7.68 µM); inhibition at 16 µg/mL (CaES-17 cell line): 99.4%; IC50 (CaES-17 cell line): 3.61 µg/mL (≈ 5.54 µM); inhibition at 16 µg/mL (MGC 803 cell line): 99.5%; IC50 (MGC 803 cell line): 5.26 µg/mL (≈ 8.07 µM); IC50 (SK-OV-3 cell line): 5.49 µg/mL (≈ 8.42 µM); inhibition at 16 µg/mL (SK-OV-3 cell line): 98.9%

Reference: US9156801B2, “2-substituted oleanolic acid derivative, method preparing for same, and application thereof” (HANGZHOU BENSHENG PHARMACEUTICAL CO., LTD., priority 2011, dated 2015)
